Test results reported in patent US4021545A, “Complement inhibitors” (priority 1976, dated 1977).
Where “and” joins values, the source holds several entries; their conditions need not be identical. Identical values can stand only once.

Legend:
[1] = test system: late components of human complement (C3-C9); assay: Test, Code 035 (C3-C9 inhibitor); format: biochemical; conditions: serial two-fold dilution assay; higher well number indicates higher activity; lysis of EAC 142
Procedure: (§1) This test measures the ability of activated human C1 to destroy fluid phase human C2 in the presence of C4 and appropriate dilutions of the test compound. […] Inhibition of the shunt pathway results in failure of lysis; (iv) Forssman Test -- Here, the well known complement dependent lesion, Forssman vasculitis, is produced in guinea pigs by intradermal injection of rabbit anti-Forssman antiserum. […] The complement level is determined in undiluted serum by the capillary tube method of U.S. Pat. No. 3,876,376 and compared to undosed control guinea pigs; and (vii) Cap 50 Test -- Here, appropriate amounts of the test compound are added to a pool of guinea pig serum in vitro, after which the undiluted serum capillary tube assay referred to above is run.

activated human C1 = assay: Test, Code 026 (C1 inhibitor); format: biochemical; conditions: serial two-fold dilution assay; higher well number indicates higher activity
Procedure: as §1

[2] = test system: shunt pathway activated by cobra venom factor; format: cell-based; conditions: serial two-fold dilution assay; higher well number indicates higher activity; human erythrocytes in autologous serum
Procedure: as §1

whole complement = conditions: 200 mg/kg, percent inhibition of serum complement vs simultaneous controls
Procedure: With reference to Table I, guinea pigs weighing about 300 g were dosed intravenously (IV) or intraperitoneally (IP) with 200 mg/kg of the test compound dissolved in saline and adjusted to pH 7-8. One hour after dosing, the guinea pigs were decapitated, blood was collected and the serum separated. The serum was tested for whole complement using the capillary tube assay. Percent inhibition was calculated by comparison with simultaneous controls.

[3] = test system: complement in pool of guinea pig serum; assay: Cap 50 Test; format: biochemical; conditions: in vitro, undiluted guinea pig serum, capillary tube assay
Procedure: as §1

Row | Substance | C-Late 035 [1] | Cl 026 (activated human C1) | Shunt Inhibit. 036 [2] [wells] | In Vivo Activity Guinea Pig (IV) 2 Hr. (whole complement; 2 Hr.) | In Vivo Activity Guinea Pig (IV) 30 Hr. (whole complement; 30 Hr.) | In Vivo Activity Guinea Pig (IV) 120 Hr. (whole complement; 120 Hr.) | Cap 50 [3]
1 | Inulin, poly(H-sulfate)salt with triethylamine | 5 wells | 8 wells | 5 | -97 | -95 | -91 | 160
2 | Inulin, poly(H-sulfate)salt with trimethylamine | 6 wells | 8 wells | 5 | – | – | – | 131
3 | Inulin, poly(H-sulfate)sodium salt [INULIN, POLY(H-SULFATE) SODIUM SALT] | 5 wells and 7 wells | 7 wells and 10 wells | 5 | – | – | – | 100 and 94 and 92
